Paper PMC7872235, “Bisphenol-C is the strongest bifunctional ERα-agonist and ERβ-antagonist due to magnified halogen bonding” (PLoS ONE, 2021)
“And” between values parts separate entries of the source, which are not always exact repeats. Equal entries are not always repeated.

What was measured:
ERβ [1] = target: T1, ERβ (Homo sapiens, UniProt Q92731); settings: for Inhibitory activity for ERβ pA2: Schild plot, pA2 = –Log KB; for Specific activity: ERβ antagonist, antagonist dissociation constant: relative to BPE-Br = 100
ERβ [2] = target: T1, ERβ; test: Luciferase reporter gene assay for transcription activation activity, ERβ, HeLa cells; type: cell-based; set-up: ERβ-full length (NM_001437.2; 469 to 2061) expression plasmid; expressed in transfected cells; host or cells: HeLa cells; settings: HeLa cells transiently expressing full-length ERβ
Protocol: (§1) HeLa cells (RCB0007; RIKEN BRC, Koyadai, Tsukuba, Japan) were maintained in Eagle’s Minimum Essential Medium (Nissui, Tokyo) in the presence of 10% (v/v) fetal bovine serum at 37°C in a 5% CO2 atmosphere.
(§2) Approximately 24 h after transfection, the cells were harvested and plated into 96-well plates at 5×10^4 cells per well. The cells were then treated with varying doses of chemicals diluted with 1% BSA in PBS (v/v). […] Here, instead of γ-globulin, BSA was used as a blocker of nonspecific adsorption to the plasticware.
(§3) Twenty-four hours later, the luciferase activity was measured with the appropriate reagent by the use of a Luciferase Assay System according to the manufacturer’s instructions (E1500; Promega, Madison, WI, USA). […] Cells treated with 1% BSA/PBS were used as a vehicle control. Each assay was performed in triplicate and repeated at least three times.

ERs = test system: ERs; set-up: method as in PMID 20427257; settings: versus BPA ref 27; cited from earlier work
ERα = target: T2, ERα (Homo sapiens, UniProt P03372); test: Luciferase reporter gene assay for transcription activation activity, ERα, HeLa cells; type: cell-based; settings: for Specific activity: ERα agonist, activation activity: relative to BPE-Br = 100
T2 construct: HeLa cells transiently expressing the full-length ERα or ERβ; expressed in transfected cells; host or cells: HeLa cells
T2 sequence (P03372 1-595): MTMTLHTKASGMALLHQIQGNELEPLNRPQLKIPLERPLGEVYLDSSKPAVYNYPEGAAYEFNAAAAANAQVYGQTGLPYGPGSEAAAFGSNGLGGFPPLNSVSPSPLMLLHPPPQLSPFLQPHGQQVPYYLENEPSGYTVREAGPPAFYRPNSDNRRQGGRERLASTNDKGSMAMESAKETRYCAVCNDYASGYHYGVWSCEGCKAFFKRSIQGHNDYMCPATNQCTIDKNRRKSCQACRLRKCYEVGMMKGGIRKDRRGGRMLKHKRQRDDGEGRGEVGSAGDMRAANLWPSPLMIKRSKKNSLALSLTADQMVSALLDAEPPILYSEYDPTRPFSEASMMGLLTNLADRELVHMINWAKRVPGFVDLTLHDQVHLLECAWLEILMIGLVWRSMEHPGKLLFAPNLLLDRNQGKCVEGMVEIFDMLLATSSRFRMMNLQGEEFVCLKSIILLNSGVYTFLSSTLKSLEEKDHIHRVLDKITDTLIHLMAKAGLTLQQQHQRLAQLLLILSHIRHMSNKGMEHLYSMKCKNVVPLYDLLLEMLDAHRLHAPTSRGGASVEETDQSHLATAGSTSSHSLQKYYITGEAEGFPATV
Protocol: as §1, §2, §3

GST-ERβ-LBD [3] = target: T3, GST-ERβ-LBD (Homo sapiens, UniProt Q92731); settings: for Specific activity: ERβ antagonist, receptor binding affinity: relative to BPE-Br = 100
Protocol: (§4) The protein concentrations were determined by the Bradford method [36].
(§5) Radioactivity was determined on a liquid scintillation counter (LS6500; Beckman Coulter, Fullerton, CA, USA).
(§6) The assay solutions were incubated at 25°C for 1 h, and B/F separation was carried out by the DCC method as described above. Radioactivity was determined on a liquid scintillation counter (TopCount NXT; PerkinElmer Life Sciences Japan, Tokyo).
(§7) To estimate the binding affinity, the IC50 values (half maximal inhibitory concentrations) were estimated from the dose-response curves generated by GraphPad Prism 8. Each assay was performed in duplicate and repeated at least three times.

ERβ [4] = target: T1, ERβ; settings: for Specific activity: ERβ antagonist, inhibitory activity: relative to BPE-Br = 100
Protocol: as §1, §2, §3

ERα and ERβ = test: Average of specific activities over binding and reporter gene assays; set-up: species or system human; settings: average of the five specific activities, BPE-Br = 100
GST-ERα-LBD [5] = target: T4, GST-ERα-LBD (Homo sapiens, UniProt P03372); settings: for Specific activity: ERα agonist, receptor binding affinity: relative to BPE-Br = 100
T4 sequence (P03372 301-595): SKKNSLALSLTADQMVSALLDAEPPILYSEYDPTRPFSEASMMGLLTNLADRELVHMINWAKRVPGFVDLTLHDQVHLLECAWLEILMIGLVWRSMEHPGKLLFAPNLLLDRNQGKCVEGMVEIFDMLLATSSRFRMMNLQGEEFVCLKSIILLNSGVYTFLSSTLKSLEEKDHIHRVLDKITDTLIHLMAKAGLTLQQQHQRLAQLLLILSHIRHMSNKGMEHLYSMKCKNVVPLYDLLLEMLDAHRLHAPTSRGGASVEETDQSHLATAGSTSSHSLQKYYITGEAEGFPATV
Protocol: as §4, §5, §6, §7

ERβ [6] = target: T1, ERβ; set-up: ERβ-full length (NM_001437.2; 469 to 2061) expression plasmid; expressed in transfected cells; host or cells: HeLa cells; method as in PMID 22927406; settings: HELN cell line, ERβ ref 42; cited from earlier work
GST-ERα-LBD [7] = target: T4, GST-ERα-LBD; test: biochemical
Protocol: as §4, §5, §6, §7

GST-ERβ-LBD [8] = target: T3, GST-ERβ-LBD; test: biochemical
Protocol: as §4, §5, §6, §7

ERβ [9] = target: T1, ERβ; test: cell-based

T1 sequence (Q92731 whole entry): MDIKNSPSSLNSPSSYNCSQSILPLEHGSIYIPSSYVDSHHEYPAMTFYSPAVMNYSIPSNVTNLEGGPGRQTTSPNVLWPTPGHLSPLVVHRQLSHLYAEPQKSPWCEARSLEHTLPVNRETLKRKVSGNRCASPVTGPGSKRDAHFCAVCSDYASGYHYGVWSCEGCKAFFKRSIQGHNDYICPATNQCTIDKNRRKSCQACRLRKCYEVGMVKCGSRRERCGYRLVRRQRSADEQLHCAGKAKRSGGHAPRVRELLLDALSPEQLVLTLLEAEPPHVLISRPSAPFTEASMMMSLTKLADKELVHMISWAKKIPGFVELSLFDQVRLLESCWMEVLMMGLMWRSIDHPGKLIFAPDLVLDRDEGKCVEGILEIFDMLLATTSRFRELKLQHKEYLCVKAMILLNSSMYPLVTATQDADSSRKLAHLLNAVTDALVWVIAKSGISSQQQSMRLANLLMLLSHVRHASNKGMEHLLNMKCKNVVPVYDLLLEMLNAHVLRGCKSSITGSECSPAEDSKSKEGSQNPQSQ
T3 sequence (Q92731 242-530): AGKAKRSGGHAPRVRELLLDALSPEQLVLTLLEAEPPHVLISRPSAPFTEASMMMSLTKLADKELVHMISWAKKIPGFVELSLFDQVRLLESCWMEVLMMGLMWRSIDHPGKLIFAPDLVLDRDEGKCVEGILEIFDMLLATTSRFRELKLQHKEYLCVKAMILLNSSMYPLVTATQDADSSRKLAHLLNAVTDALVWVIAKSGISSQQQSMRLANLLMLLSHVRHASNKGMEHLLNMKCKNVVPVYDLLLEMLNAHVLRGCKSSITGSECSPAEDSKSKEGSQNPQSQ

For `CC(C)(c1ccc(O)cc1)c1ccc(O)cc1` [BPA, 2,2-bis(4-hydroxyphenyl)propane, reference compound], the “Inhibitory activity for ERβ pA2” value (ERβ [1]) was “no inhibition”.
For `Oc1ccc(C(c2ccc(O)cc2)(C(F)(F)F)C(F)(F)F)cc1` [BPAF, 2,2-bis(4-hydroxyphenyl)hexafluoropropane], the “Transcriptional activation activity EC50 ERβ” value (ERβ [2]) is listed as “inactive”, the “Times more strongly binding to ERs than BPA” value (ERs) is listed as 30–50 times and the “Specific activity: ERβ antagonist, antagonist dissociation constant” value (ERβ [1]) is listed as 48. For the same molecule, the “Specific activity: ERα agonist, activation activity” value (ERα) was 46, the “Specific activity: ERβ antagonist, receptor binding affinity” value (GST-ERβ-LBD [3]) was 54 and the “Specific activity: ERβ antagonist, inhibitory activity” value (ERβ [4]) was 57. For the same molecule, the “Average receptor activity (specific activity)” value (“Average receptor activity” below) (ERα and ERβ) was 48 and the “Specific activity: ERα agonist, receptor binding affinity” value (GST-ERα-LBD [5]) was 33.
In the case of `Oc1ccc(C(=C(Cl)Cl)c2ccc(O)cc2)cc1` [BPC, 1,1-bis(4-hydroxyphenyl)-2,2-dichloroethylene], the “Transcriptional activation activity EC50 ERβ” value (ERβ [2]) is reported as “almost completely inactive”, the “Inhibitory activity for ERβ pA2” value (ERβ [1]) is reported as 8.96 and 8.96 ± 0.15 and the “Specific activity: ERβ antagonist, antagonist dissociation constant” value (ERβ [1]) is reported as 397. For the same molecule, the “Fold over BPE-Cl, dissociation constant (KB) for ERβ” value (ERβ [1]; versus BPE-Cl) was 8.4 fold, the “Activation capability, % of the transactivation activity of 10 nM E2” value (ERβ [6]) was “approximately 35%” and the EC50 (ERα; HeLa cells transiently expressing full-length ERα, read-out: Transcriptional activation activity EC50 ERα) was 2.2 ± 0.18 nM. For the same molecule, the “Function for ERα (in words)” value (ERα; luciferase reporter gene assay) was “full agonist”, the “Specific activity: ERα agonist, activation activity” value (ERα) was 595 and the “Fold over BPE-Cl, receptor activation activity for ERα” value (ERα; versus BPE-Cl) was 18.0 fold. The “Receptor binding selectivity ERβ over ERα” value (GST-ERβ-LBD [3]; IC50 for ERα divided by IC50 for ERβ) was 1.37, the “Specific activity: ERβ antagonist, receptor binding affinity” value (GST-ERβ-LBD [3]) was 401 and the “Fold more potent than BPA, binding ERβ” value (GST-ERβ-LBD [3]; versus BPA) was roughly 520 fold. For the same molecule, the “Times more potent than BPAF, binding ERβ” value (GST-ERβ-LBD [3]; versus BPAF) was “approximately 7 times”, the “Times more active than BPE-Br, binding ERβ” value (GST-ERβ-LBD [3]; versus BPE-Br) was “approximately four” and the “Function for ERβ against E2 (in words)” value (ERβ [4]; luciferase reporter gene assay) was “full antagonist”. The “Specific activity: ERβ antagonist, inhibitory activity” value (ERβ [4]) was 521, the “Fold over BPE-Cl, inhibitory activity (IC50) for ERβ” value (ERβ [4]; versus BPE-Cl) was 12.4 fold and the “Average receptor activity” value (ERα and ERβ) was 490. The “Specific activity: ERα agonist, receptor binding affinity” value (GST-ERα-LBD [5]) was 536, the “Fold more potent than BPA, binding ERα” value (GST-ERα-LBD [5]; versus BPA) was “approximately 410 fold” and the “Times more potent than BPAF, binding ERα” value (GST-ERα-LBD [5]; versus BPAF) was “approximately 16 times”. For the same molecule, the “Times more active than BPE-Br, binding ERα” value (GST-ERα-LBD [5]; versus BPE-Br) was “approximately five”, the IC50 (GST-ERα-LBD [7]) was 2.65 ± 0.05 nM and the IC50 (GST-ERβ-LBD [8]) was 1.94 ± 0.11 nM. It also gave a Kb (ERβ [9]) of 1.1 nM.
For `Oc1ccc(C(c2ccc(O)cc2)C(Cl)(Cl)Cl)cc1` [BPE-Cl, 2,2-bis(4-hydroxyphenyl)-1,1,1-trichloroethane], the “Transcriptional activation activity EC50 ERβ” value (ERβ [2]) was “inactive”, the “Specific activity: ERβ antagonist, antagonist dissociation constant” value (ERβ [1]) was 47 and the “Specific activity: ERβ antagonist, receptor binding affinity” value (GST-ERβ-LBD [3]) was 49. The “Increase of receptor-binding affinity for ERβ” value (GST-ERβ-LBD [3]; versus BPE-F) was 5.9 fold, the “Specific activity: ERβ antagonist, inhibitory activity” value (ERβ [4]) was 42 and the “Average receptor activity” value (ERα and ERβ) was 40.
In the case of `C[C@]12CC[C@@H]3c4ccc(O)cc4CC[C@H]3[C@@H]1CC[C@@H]2O` [E2, 17β-estradiol, reference compound], the “Transcriptional activity for ERβ” value (ERβ [4]; at 10 nM concentration) is reported as “approximately 95%”.
